Reference: PubChem BioAssay AID624145 (Sanford-Burnham Center for Chemical Genomics, 2012)
The source made the active and inactive calls.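 The calls were made as follows: active = EC50 at or below 20 µM; inactive = the rest.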

Tested on: hiPSC single-cell survival, DAPI nuclei count imaging
Experiment: enhancers of single-cell hiPSC survival, dose response, imaging, fluorescence imaging, uHTS hits (AID 624145)

SMILES	EC50
CCN1C/C(=C\c2cccc([N+](=O)[O-])c2)C(=O)/C(=C/c2cccc([N+](=O)[O-])c2)C1	> 80 µM (inactive)
Cc1c(C(=O)OCC(=O)Nc2ccc(C(N)=O)cc2)cccc1[N+](=O)[O-]	> 80 µM (inactive)
C=C1C(=O)OC2CC(C)C3C=CC(=O)C3(C)C(O)C12 (stereo not drawn)	> 80 µM (inactive)
CNc1cc(Cl)c2nonc2c1[N+](=O)[O-]	> 80 µM (inactive)
CC1(C)Cc2c(C#N)c(NCC3CCCO3)nc(-c3ccco3)c2CO1 (stereo not drawn)	42.8 µM (inactive)
O=C(C(O)c1ccc(Br)cc1)N1CCC(Nc2ccc3[nH]ncc3c2)CC1 (stereo not drawn)	5.88 µM
CC(C)(C)NC(=O)Cn1nnc(-c2ccccc2NC(=O)c2cnccn2)n1	> 80 µM (inactive)
CN1C2CCC1/C(=C/c1ccccn1)C(=O)/C2=C\c1ccccn1	> 80 µM (inactive)
CCC(C(=O)Nc1ccc2[nH]ncc2c1)c1ccccc1 (stereo not drawn)	6.49 µM
O=C(COc1ccccc1)Nc1nc(-c2ccncc2)cs1	29.3 µM (inactive)
O=C(NCC1CC1)c1ccc(-c2cn[nH]c2)c2ccoc12	14.2 µM
C=C1C(C)C2C(Cc3ccccc3)NC(=O)C23C(OC(C)=O)C=CC(C)(O)CC(C)CC=CC3C1O (stereo not drawn)	> 80 µM (inactive)
CN(C(=O)COC(=O)c1nc(Cl)c(Cl)c(Cl)c1Cl)C1CCS(=O)(=O)C1 (stereo not drawn)	> 80 µM (inactive)
O=C(Nc1ccncc1)c1ccccc1F	28.2 µM (inactive)
C=C1[C@@H](C)[C@H]2[C@H](Cc3ccccc3)NC(=O)[C@]23OC(=O)/C=C/[C@H](O)CCC[C@@H](C)C/C=C/[C@H]3[C@@H]1O	12.5 µM
COCCNC(=O)c1ccc(-c2cn[nH]c2)c2ccoc12	19.2 µM
O=S(=O)(c1cccc2cnccc12)N1CCNCC1	2.05 µM
CC(Oc1ccccc1)C(=O)Nc1nc(-c2ccncc2)cs1 (stereo not drawn)	42.9 µM (inactive)
CCCNC(=O)COC(=O)c1ccccc1C(=O)c1ccc(Cl)c([N+](=O)[O-])c1	> 80 µM (inactive)
CCCCCCC[C@@H](C/C=C/CCC(=O)N(C)C/C(=C/Cl)C/C(=C\C(=O)N1CC(OC)=CC1=O)OC)OC	0.525 µM
CCOCCCNC(=O)/C(C#N)=C/c1ccc([N+](=O)[O-])o1	> 80 µM (inactive)
CCCCn1c(=O)[nH]c(=O)c2c1nc(Cn1ncc(Cl)c(Cl)c1=O)n2CCC	> 80 µM (inactive)
CC(OC(=O)c1ccc2c(=O)n3c(nc2c1)CCC3)C(=O)Nc1ccc(C(N)=O)cc1 (stereo not drawn)	28.4 µM (inactive)
CN1C/C(=C/c2cccnc2)C(=O)/C(=C/c2cccnc2)C1	> 80 µM (inactive)
O=C1/C(=C/c2ccncc2)CCC/C1=C\c1ccncc1	> 80 µM (inactive)
O=C(Cc1ccc(Br)cc1)Nc1ccc2[nH]ncc2c1	19.1 µM
CC(OC(=O)c1cccc(S(=O)(=O)N2CCN(C)CC2)c1)C(=O)Nc1ccc(C(N)=O)cc1 (stereo not drawn)	35.6 µM (inactive)

SMILES	EC50
CN(Cc1ccc(C(F)(F)F)cc1)C(=O)[C@H]1O[C@@H](n2cnc3c(N)ncnc32)[C@H](O)[C@@H]1O	20.8 µM (inactive)
COc1ccc2c(c1)c(=O)c(C(=O)c1ccc(Cl)cc1)cn2CC(=O)Nc1ccc(F)cc1	18.6 µM
O=C(NCc1ccccc1)c1ccc(-c2cn[nH]c2)c2ccoc12	1.1 µM
O=C(Nc1ccncc1)c1cc(S(=O)(=O)N2CCOCC2)ccc1Cl	13.8 µM
O=C(Nc1ccncc1)c1cc(S(=O)(=O)N2CCCC2)ccc1Cl	13.6 µM
NC(=O)c1ccc(NC(=O)CCC(=O)c2cccs2)cc1	7.14 µM
CC(OC(=O)c1ccc(S(=O)(=O)N2CCCCC2)cc1)C(=O)Nc1ccc(C(N)=O)cc1 (stereo not drawn)	10.5 µM
CN1Cc2cnnn2-c2ccccc2C1C#N (stereo not drawn)	26.5 µM (inactive)
c1ccc(CN2CCN(c3nc(NCc4ccco4)c4ccccc4n3)CC2)cc1	5.81 µM
CC1C/C(=C/c2ccncc2)C(=O)/C(=C/c2ccncc2)C1 (stereo not drawn)	> 80 µM (inactive)
CC1(C)Cc2c(C#N)c(SCC(=O)c3ccccc3)nc(N3CCOCC3)c2CS1	39.3 µM (inactive)
O=C(Nc1nc(-c2ccncc2)cs1)C1COc2ccccc2O1 (stereo not drawn)	1.86 µM
C=C1C(C)C2C(Cc3ccccc3)NC(=O)C23OC(=O)/C=C/C(O)CCCC(C)C/C=C/C3C1O (stereo not drawn)	12.5 µM
Cc1nnc2n(C3CCCCC3)c(=O)c3c4c(sc3n12)COC(C)(C)C4	> 80 µM (inactive)
CCN1C/C(=C/c2cccc([N+](=O)[O-])c2)C(=O)/C(=C/c2cccc([N+](=O)[O-])c2)C1	> 80 µM (inactive)
O=c1c(Cl)c(Cl)cnn1Cc1nnc(-c2ccccc2Br)o1	> 80 µM (inactive)
N#C/C(=C/c1cccc([N+](=O)[O-])c1)c1nnc2n1CCCCC2	> 80 µM (inactive)
O=C(Nc1ccncc1)c1c(F)c(F)c(F)c(F)c1F	5.46 µM
C=C1C(=O)O[C@@H]2C[C@@H](C)[C@@H]3C=CC(=O)[C@@]3(C)[C@@H](O)[C@H]12	> 80 µM (inactive)
COC(=O)CCSc1cc([N+](=O)[O-])cc2c1c(C1OCCS1)nn2-c1ccccc1 (stereo not drawn)	> 80 µM (inactive)
CCn1c(Cl)c(C=O)s/c1=N\S(=O)(=O)c1ccccc1	> 80 µM (inactive)
CCCSc1nc(N2CCOCC2)c2c(c1C#N)CC(C)(C)SC2	> 80 µM (inactive)
COc1ccccc1Sc1nc(-c2ccccn2)ncc1OC	45.7 µM (inactive)
O=C(Nc1ccncc1)c1c(F)cccc1F	13.6 µM
C=C(C)[C@@]12OC3(c4ccccc4)O[C@@H]1C1[C@@H]4O[C@]4(CO)[C@@H](O)[C@]4(O)C(=O)C(C)=C[C@H]4[C@@]1(O3)[C@H](C)[C@H]2OC(=O)/C=C/C=C/c1ccccc1 (stereo partly drawn)	> 80 µM (inactive)
O=C(Nc1ccncc1)c1ccccc1[N+](=O)[O-]	33.4 µM (inactive)
